# Measured values: PubChem BioAssay AID1963962 (Molecular Pharmacology Branch, DTP, NCI, 2024)
# Tested on: 967376-340-R-J2-PDC multicell spheroid viability
# Test: Anticancer human tumor 967376-340-R-J2-PDC patient-derived colon adenocarcinoma cell line growth inhibition [PI3K]
# Details: for viability, T/C: stronger effect = lower value
# Method in brief: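 Spheroid viability read-out. Co-cultures contained the tumor line plus HUVEC and human MSCs. Each agent was paired with a PI3K inhibitor (inavolisib, alpelisib, duvelisib, copanlisib) across half-log dilutions starting at clinical Cmax, or at 10 microM when Cmax was unknown.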
# [1] = curve of first compound, second compound 0.00316 µM
# [2] = curve of first compound, second compound 0.01 µM
# [3] = curve of first compound, second compound 0.0316 µM
# [4] = curve of first compound, second compound 0.1 µM
# [5] = curve of first compound, second compound 0.316 µM
# [6] = curve of first compound, second compound 1 µM
# [7] = second compound 0.00316 µM, first compound 0.0316 µM
# [8] = second compound 0.00316 µM, first compound 0.1 µM
# [9] = second compound 0.00316 µM, first compound 0.316 µM
# [10] = second compound 0.00316 µM, first compound 1 µM
# [11] = second compound 0.00316 µM, first compound 3.16 µM
# [12] = second compound 0.00316 µM, first compound 10 µM
# [13] = second compound 0.01 µM, first compound 0.0316 µM
# [14] = second compound 0.01 µM, first compound 0.1 µM
# [15] = second compound 0.01 µM, first compound 0.316 µM
# [16] = second compound 0.01 µM, first compound 1 µM
# [17] = second compound 0.01 µM, first compound 3.16 µM
# [18] = second compound 0.01 µM, first compound 10 µM
# [19] = second compound 0.0316 µM, first compound 0.0316 µM
# [20] = second compound 0.0316 µM, first compound 0.1 µM
# [21] = second compound 0.0316 µM, first compound 0.316 µM
# [22] = second compound 0.0316 µM, first compound 1 µM
# [23] = second compound 0.0316 µM, first compound 3.16 µM
# [24] = second compound 0.0316 µM, first compound 10 µM
# [25] = second compound 0.1 µM, first compound 0.0316 µM
# [26] = second compound 0.1 µM, first compound 0.1 µM
# [27] = second compound 0.1 µM, first compound 0.316 µM
# [28] = second compound 0.1 µM, first compound 1 µM
# [29] = second compound 0.1 µM, first compound 3.16 µM
# [30] = second compound 0.1 µM, first compound 10 µM
# [31] = second compound 0.316 µM, first compound 0.0316 µM
# [32] = second compound 0.316 µM, first compound 0.1 µM
# [33] = second compound 0.316 µM, first compound 0.316 µM
# [34] = second compound 0.316 µM, first compound 1 µM
# [35] = second compound 0.316 µM, first compound 3.16 µM
# [36] = second compound 0.316 µM, first compound 10 µM
# [37] = second compound 1 µM, first compound 0.0316 µM
# [38] = second compound 1 µM, first compound 0.1 µM
# [39] = second compound 1 µM, first compound 0.316 µM
# [40] = second compound 1 µM, first compound 1 µM
# [41] = second compound 1 µM, first compound 3.16 µM
# [42] = second compound 1 µM, first compound 10 µM
# 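Also: spheroids exposed to agents for 7 days before read-out.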
# 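For viability, T/C in this document: luminescence used as surrogate of cell viability.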
smiles,measurement,setting,value
C#Cc1c(F)ccc2cc(O)cc(-c3ncc4c(N5CC6CCC(C5)N6)nc(OCC56CCCN5CC(F)C6)nc4c3F)c12 (stereo not given) + COc1c(OCCCN2CCOCC2)ccc2c3n(c(=NC(=O)c4cnc(N)nc4)nc12)CCN3,IC50,[1],> 10000 nM
same,IC50,[2],> 10000 nM
same,IC50,[3],> 10000 nM
same,IC50,[4],1210 nM
same,IC50,[5],3640 nM
same,IC50,[6],< 31.6 nM
same,"viability, T/C",[7],89%
same,"viability, T/C",[8],99.1%
same,"viability, T/C",[9],101%
same,"viability, T/C",[10],109%
same,"viability, T/C",[11],91.8%
same,"viability, T/C",[12],84.7%
same,"viability, T/C",[13],94.2%
same,"viability, T/C",[14],102%
same,"viability, T/C",[15],79.2%
same,"viability, T/C",[16],91.6%
same,"viability, T/C",[17],77.9%
same,"viability, T/C",[18],62.9%
same,"viability, T/C",[19],83%
same,"viability, T/C",[20],82.5%
same,"viability, T/C",[21],81.5%
same,"viability, T/C",[22],77.1%
same,"viability, T/C",[23],81.8%
same,"viability, T/C",[24],57.3%
same,"viability, T/C",[25],68.4%
same,"viability, T/C",[26],61.8%
same,"viability, T/C",[27],58.1%
same,"viability, T/C",[28],48.8%
same,"viability, T/C",[29],47.1%
same,"viability, T/C",[30],49%
same,"viability, T/C",[31],56.1%
same,"viability, T/C",[32],48.2%
same,"viability, T/C",[33],53.7%
same,"viability, T/C",[34],42.3%
same,"viability, T/C",[35],63.6%
same,"viability, T/C",[36],29.8%
same,"viability, T/C",[37],42.9%
same,"viability, T/C",[38],40.9%
same,"viability, T/C",[39],44.2%
same,"viability, T/C",[40],40%
same,"viability, T/C",[41],40.7%
same,"viability, T/C",[42],18.6%
CC(C)n1nc(-c2ccc3oc(N)nc3c2)c2c(N)ncnc21 + Cc1nc(NC(=O)N2CCCC2C(N)=O)sc1-c1ccnc(C(C)(C)C(F)(F)F)c1,IC50,[3],> 100 nM
same,IC50,[4],91.3 nM
same,IC50,[5],70.5 nM
same,IC50,[6],55.1 nM
same,IC50,"curve of first compound, second compound 3.16 µM",22 nM
same,IC50,"curve of first compound, second compound 10 µM",5.87 nM
same,"viability, T/C","second compound 0.0316 µM, first compound 0.000316 µM",90.8%
same,"viability, T/C","second compound 0.0316 µM, first compound 0.001 µM",108%
same,"viability, T/C","second compound 0.0316 µM, first compound 0.00316 µM",96.5%
same,"viability, T/C","second compound 0.0316 µM, first compound 0.01 µM",109%
same,"viability, T/C",[19],70.5%
same,"viability, T/C",[20],53.4%
same,"viability, T/C","second compound 0.1 µM, first compound 0.000316 µM",84.1%
same,"viability, T/C","second compound 0.1 µM, first compound 0.001 µM",69.3%
same,"viability, T/C","second compound 0.1 µM, first compound 0.00316 µM",88.7%
same,"viability, T/C","second compound 0.1 µM, first compound 0.01 µM",73%
same,"viability, T/C",[25],70.8%
same,"viability, T/C",[26],48.2%
same,"viability, T/C","second compound 0.316 µM, first compound 0.000316 µM",67.5%
same,"viability, T/C","second compound 0.316 µM, first compound 0.001 µM",79.3%
same,"viability, T/C","second compound 0.316 µM, first compound 0.00316 µM",80.4%
same,"viability, T/C","second compound 0.316 µM, first compound 0.01 µM",72.3%
same,"viability, T/C",[31],58.7%
same,"viability, T/C",[32],46.2%
same,"viability, T/C","second compound 1 µM, first compound 0.000316 µM",65.4%
same,"viability, T/C","second compound 1 µM, first compound 0.001 µM",64.5%
same,"viability, T/C","second compound 1 µM, first compound 0.00316 µM",59.3%
same,"viability, T/C","second compound 1 µM, first compound 0.01 µM",59.7%
same,"viability, T/C",[37],66%
same,"viability, T/C",[38],36.2%
same,"viability, T/C","second compound 3.16 µM, first compound 0.000316 µM",54.6%
same,"viability, T/C","second compound 3.16 µM, first compound 0.001 µM",58.2%
same,"viability, T/C","second compound 3.16 µM, first compound 0.00316 µM",62.3%
same,"viability, T/C","second compound 3.16 µM, first compound 0.01 µM",53.7%
same,"viability, T/C","second compound 3.16 µM, first compound 0.0316 µM",46.7%
same,"viability, T/C","second compound 3.16 µM, first compound 0.1 µM",32.2%
same,"viability, T/C","second compound 10 µM, first compound 0.000316 µM",47.8%
same,"viability, T/C","second compound 10 µM, first compound 0.001 µM",54.2%
same,"viability, T/C","second compound 10 µM, first compound 0.00316 µM",51.6%
same,"viability, T/C","second compound 10 µM, first compound 0.01 µM",48.9%
same,"viability, T/C","second compound 10 µM, first compound 0.0316 µM",41.3%
same,"viability, T/C","second compound 10 µM, first compound 0.1 µM",34.5%
CC1(C)CCC(CN2CCN(c3ccc(C(=O)NS(=O)(=O)c4ccc(NCC5CCOCC5)c([N+](=O)[O-])c4)c(Oc4cnc5[nH]ccc5c4)c3)CC2)=C(c2ccc(Cl)cc2)C1 + CC(Nc1ccc2c(c1)OCCn1cc(N3C(=O)OCC3C(F)F)nc1-2)C(N)=O,IC50,[1],> 10000 nM
same,IC50,[2],> 10000 nM
same,IC50,[3],> 10000 nM
same,IC50,[4],> 10000 nM
same,IC50,[5],7820 nM
same,IC50,[6],4850 nM
same,"viability, T/C",[7],106%
same,"viability, T/C",[8],67.9%
same,"viability, T/C",[9],97.2%
same,"viability, T/C",[10],98%
same,"viability, T/C",[11],102%
same,"viability, T/C",[12],61.1%
same,"viability, T/C",[13],107%
same,"viability, T/C",[14],75.7%
same,"viability, T/C",[15],79.9%
same,"viability, T/C",[16],78.6%
same,"viability, T/C",[17],81.2%
same,"viability, T/C",[18],57.3%
same,"viability, T/C",[19],67.3%
same,"viability, T/C",[20],86.5%
same,"viability, T/C",[21],82.2%
same,"viability, T/C",[22],88.9%
same,"viability, T/C",[23],75.9%
same,"viability, T/C",[24],81.5%
same,"viability, T/C",[25],70.6%
same,"viability, T/C",[26],80.5%
same,"viability, T/C",[27],79.1%
same,"viability, T/C",[28],84.7%
same,"viability, T/C",[29],95.7%
same,"viability, T/C",[30],58.8%
same,"viability, T/C",[31],68.3%
same,"viability, T/C",[32],81.5%
same,"viability, T/C",[33],58.2%
same,"viability, T/C",[34],76.2%
same,"viability, T/C",[35],71.2%
same,"viability, T/C",[36],44.5%
same,"viability, T/C",[37],56.7%
same,"viability, T/C",[38],48.1%
same,"viability, T/C",[39],57.2%
same,"viability, T/C",[40],49.9%
same,"viability, T/C",[41],67.8%
same,"viability, T/C",[42],36.2%
CCN1CCN(Cc2ccc(Nc3ncc(F)c(-c4cc(F)c5nc(C)n(C(C)C)c5c4)n3)nc2)CC1,"viability, T/C",compound 0.00316 µM,110% [middle of 4 runs]
same,"viability, T/C",compound 0.01 µM,93.5% [middle of 4 runs]
same,"viability, T/C",compound 0.0316 µM,94.2% [middle of 4 runs]
same,"viability, T/C",compound 0.1 µM,82% [middle of 4 runs]
same,"viability, T/C",compound 0.316 µM,87% [middle of 4 runs]
same,"viability, T/C",compound 1 µM,74% [middle of 4 runs]
same,IC50,curve of compound,> 1000 nM
CC(C)NCC(C(=O)N1CCN(c2ncnc3c2C(C)CC3O)CC1)c1ccc(Cl)cc1 (stereo not given) + COc1c(OCCCN2CCOCC2)ccc2c3n(c(=NC(=O)c4cnc(N)nc4)nc12)CCN3,IC50,[1],> 10000 nM
same,IC50,[2],> 10000 nM
same,IC50,[3],> 10000 nM
same,IC50,[4],> 10000 nM
same,IC50,[5],< 31.6 nM
same,IC50,[6],< 31.6 nM
same,"viability, T/C",[7],79.8%
same,"viability, T/C",[8],100%
same,"viability, T/C",[9],78.2%
same,"viability, T/C",[10],83.5%
same,"viability, T/C",[11],73%
same,"viability, T/C",[12],85.4%
same,"viability, T/C",[13],90.9%
same,"viability, T/C",[14],75.4%
same,"viability, T/C",[15],102%
same,"viability, T/C",[16],66.9%
same,"viability, T/C",[17],76%
same,"viability, T/C",[18],75.5%
same,"viability, T/C",[19],78.8%
same,"viability, T/C",[20],61.5%
same,"viability, T/C",[21],62.5%
same,"viability, T/C",[22],66.7%
same,"viability, T/C",[23],82.9%
same,"viability, T/C",[24],66.4%
same,"viability, T/C",[25],53.7%
same,"viability, T/C",[26],54.1%
same,"viability, T/C",[27],74.5%
same,"viability, T/C",[28],49%
same,"viability, T/C",[29],57.9%
same,"viability, T/C",[30],47.5%
same,"viability, T/C",[31],38.4%
same,"viability, T/C",[32],35.5%
same,"viability, T/C",[33],57.1%
same,"viability, T/C",[34],33.9%
same,"viability, T/C",[35],52.5%
same,"viability, T/C",[36],49.4%
same,"viability, T/C",[37],48.4%
same,"viability, T/C",[38],25.3%
same,"viability, T/C",[39],37.2%
same,"viability, T/C",[40],26.1%
same,"viability, T/C",[41],47.6%
same,"viability, T/C",[42],48.7%
